Assay results published in US11739100B2, “2,3-dihydro-1h-imidazo{1,2-a}pyrimidin-5-one and this 1,2,3,4-tetrahydropyrimido{1,2-a}pyrimidin-6-one derivatives comprising a substituted morpholine, preparation thereof and pharmaceutical use thereof” (SANOFI, priority 2012, dated 2023).

Molecular target: T1, recombinant Vps34 (Homo sapiens, UniProt Q8NEB9)
T1 construct: purchased Invitrogen PV5126
Assay: Phosphorylation of phosphatidylinositol (PI) by Vps34 in vitro, ADP detected by TR-FRET (HTRF Transcreener ADP)
Assay type: biochemical
Details: 10 μM ATP, 55 μg/ml PI, approximately 3 nM Vps34, 1 hour at ambient temperature; absolute IC50, mean of two independent experiments; read-out: IC50 activity range

T1 sequence (Q8NEB9 whole entry): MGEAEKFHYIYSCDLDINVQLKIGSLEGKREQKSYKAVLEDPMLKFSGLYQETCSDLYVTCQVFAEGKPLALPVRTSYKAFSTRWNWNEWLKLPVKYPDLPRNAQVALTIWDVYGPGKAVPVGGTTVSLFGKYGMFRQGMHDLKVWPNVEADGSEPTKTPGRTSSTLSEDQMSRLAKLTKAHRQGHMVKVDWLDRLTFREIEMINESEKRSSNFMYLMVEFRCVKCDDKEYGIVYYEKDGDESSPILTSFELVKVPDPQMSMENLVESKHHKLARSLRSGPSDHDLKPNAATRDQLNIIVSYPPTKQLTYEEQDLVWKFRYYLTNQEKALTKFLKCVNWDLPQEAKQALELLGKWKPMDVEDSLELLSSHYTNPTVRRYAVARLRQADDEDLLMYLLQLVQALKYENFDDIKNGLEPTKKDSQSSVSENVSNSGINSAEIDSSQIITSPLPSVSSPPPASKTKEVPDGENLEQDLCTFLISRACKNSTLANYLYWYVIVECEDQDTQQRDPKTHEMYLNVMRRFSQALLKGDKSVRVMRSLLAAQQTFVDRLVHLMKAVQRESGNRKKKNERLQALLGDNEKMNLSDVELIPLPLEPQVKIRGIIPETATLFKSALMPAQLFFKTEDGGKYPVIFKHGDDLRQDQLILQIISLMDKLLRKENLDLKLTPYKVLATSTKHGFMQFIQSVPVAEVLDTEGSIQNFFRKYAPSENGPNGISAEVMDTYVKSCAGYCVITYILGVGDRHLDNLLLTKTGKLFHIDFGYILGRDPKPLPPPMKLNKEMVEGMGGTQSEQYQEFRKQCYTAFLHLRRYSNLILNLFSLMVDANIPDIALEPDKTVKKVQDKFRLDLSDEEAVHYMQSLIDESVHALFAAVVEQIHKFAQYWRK

Structure (SMILES)	IC50 [nM]
C[C@@H]1COCCN1c1cc(=O)n2c(n1)N(Cc1ccon1)C(C)(C)CC2 [Example 298, 9-Isoxazol-3-ylmethyl-8,8-dimethyl-2-((R)-3-methylmorpholin-4-yl)-6,7,8,9-tetrahydro-pyrimido[1,2-a]-pyrimidin-4-one]	10 to 100
C[C@@H]1COC[C@@H](C)N1c1cc(=O)n2c(n1)N(Cc1cnc(Cl)s1)[C@H](C(F)(F)F)CC2 [Example 312, (S)-9-(2-Chloro-thiazol-5-ylmethyl)-2-((3R,5R)-3,5-dimethyl-morpholin-4-yl)-8-trifluoromethyl-6,7,8,9-tetrahydro-pyrimido[1,2-a]-pyrimidin-4-one]	10 to 100
C[C@@H]1COCCN1c1nc2n(c(=O)c1F)CC[C@@H](C(F)(F)F)N2CC(=O)N1CCCO1 [Example 314, (S)-3-Fluoro-9-(2-isoxazolidin-2-yl-2-oxoethyl)-2-((R)-3-methylmorpholin-4-yl)-8-trifluoromethyl-6,7,8,9-tetrahydro-pyrimido[1,2-a]-pyrimidin-4-one]	< 10
C[C@@H]1COCCN1c1cc(=O)n2c(n1)N(CCO)[C@H](C(F)(F)F)CC2 [Example 315, (S)-9-(2-Hydroxy-ethyl)-2-((R)-3-methyl-morpholin-4-yl)-8-trifluoromethyl-6,7,8,9-tetrahydro-pyrimido[1,2-a]-pyrimidin-4-one]	< 10
C[C@@H]1COCCN1c1nc2n(c(=O)c1F)CC[C@@H](C(F)(F)F)N2CC(=O)N1CCCCO1 [Example 317, (S)-3-Fluoro-2-((R)-3-methylmorpholin-4-yl)-9-(2-[1,2]oxazinan-2-yl-2-oxoethyl)-8-trifluoromethyl-6,7,8,9-tetrahydropyrimido-[1,2-a]pyrimidin-4-one]	< 10
C[C@@H]1COCCN1c1cc(=O)n2c(n1)N(CC(=O)N1CCCCO1)[C@H](C(F)(F)F)CC2 [Example 318, (S)-2-((R)-3-Methyl-morpholin-4-yl)-9-(2-[1,2]oxazinan-2-yl-2-oxoethyl)-8-trifluoromethyl-6,7,8,9-tetrahydropyrimido-[1,2-a]pyrimidin-4-one]	< 10
C[C@@H]1COCCN1c1cc(=O)n2c(n1)N(CC(=O)N1CCCO1)[C@H](C(F)(F)F)CC2 [Example 319, (S)-9-(2-Isoxazolidin-2-yl-2-oxoethyl)-2-((R)-3-methyl-morpholin-4-yl)-8-trifluoromethyl-6,7,8,9-tetrahydropyrimido-[1,2-a]pyrimidin-4-one]	< 10
CC1CN(c2cc(=O)n3c(n2)N(CC(=O)C(C)C)[C@H](C(F)(F)F)CC3)CCO1 (stereo partly drawn) [Example 320, (S)-2-(2-Methyl-morpholin-4-yl)-9-(3-methyl-2-oxobutyl)-8-trifluoromethyl-6,7,8,9-tetrahydropyrimido-[1,2-a]pyrimidin-4-one]	10 to 100
C[C@H]1COCCN1c1nc2n(c(=O)c1F)CC[C@@H](C(F)(F)F)N2CC(=O)C1CC1 [Example 321, (S)-9-(2-Cyclopropyl-2-oxoethyl)-3-fluoro-2-((S)-3-methyl-morpholin-4-yl)-8-trifluoromethyl-6,7,8,9-tetrahydropyrimido-[1,2-a]pyrimidin-4-one]	10 to 100
CC(=O)CN1c2nc(N3CCOC[C@H]3C)cc(=O)n2CC[C@@]1(C)C(F)(F)F [Example 327, (S)-8-Methyl-2-((R)-3-methylmorpholin-4-yl)-9-(2-oxopropyl)-8-trifluoromethyl-6,7,8,9-tetrahydropyrimido-[1,2-a]pyrimidin-4-one]	< 10
C[C@@H]1COCCN1c1cc(=O)n2c(n1)N(CC(=O)N1CC3(CCO3)C1)[C@H](C(F)(F)F)CC2 [Example 330, (S)-2-((R)-3-Methyl-morpholin-4-yl)-9-[2-(1-oxa-6-aza-spiro[3.3]hept-6-yl)-2-oxoethyl]-8-trifluoromethyl-6,7,8,9-tetrahydropyrimido-[1,2-a]pyrimidin-4-one]	10 to 100
C[C@@H]1COCCN1c1nc2n(c(=O)c1F)CC[C@@H](C(F)(F)F)N2CC(=O)N1CC2(CCO2)C1 [Example 333, (S)-3-Fluoro-2-((R)-3-methylmorpholin-4-yl)-9-[2-(1-oxa-6-aza-spiro[3.3]hept-6-yl)-2-oxoethyl]-8-trifluoromethyl-6,7,8,9-tetrahydropyrimido-[1,2-a]pyrimidin-4-one]	< 10

Continued, values first:

IC50 [nM]	Structure (SMILES)
< 10	C[C@@H]1COCCN1c1nc2n(c(=O)c1F)CC[C@@H](C(F)(F)F)N2Cc1ccon1 [Example 296, (S)-3-Fluoro-9-isoxazol-3-ylmethyl-2-((R)-3-methyl-morpholin-4-yl)-8-trifluoromethyl-6,7,8,9-tetrahydro-pyrimido[1,2-a]-pyrimidin-4-one]
< 10	C[C@@H]1COCCN1c1nc2n(c(=O)c1F)CC[C@@H](C(F)(F)F)N2Cc1ccnn1C(F)F [Example 297, (S)-9-(2-Difluoromethyl-2H-pyrazol-3-ylmethyl)-3-fluoro-2-((R)-3-methyl-morpholin-4-yl)-8-trifluoromethyl-6,7,8,9-tetrahydro-pyrimido[1,2-a]-pyrimidin-4-one]
< 10	Cc1cc(CN2c3nc(N4CCOC[C@H]4C)c(F)c(=O)n3CC[C@H]2C(F)(F)F)on1 [Example 299, (S)-3-Fluoro-9-(3-methylisoxazol-5-yl-methyl)-2-((R)-3-methylmorpholin-4-yl)-8-trifluoromethyl-6,7,8,9-tetrahydro-pyrimido[1,2-a]-pyrimidin-4-one]
< 10	CC(C)OCCN1c2nc(N3CCOC[C@H]3C)cc(=O)n2CC[C@H]1C(F)(F)F [Example 300, (S)-9-(2-Isopropoxy-ethyl)-2-((R)-3-methyl-morpholin-4-yl)-8-trifluoromethyl-6,7,8,9-tetrahydro-pyrimido[1,2-a]-pyrimidin-4-one]
< 10	C[C@@H]1COCCN1c1cc(=O)n2c(n1)N(c1cccnc1)[C@H](C(F)(F)F)CC2 [Example 301, (S)-2-((R)-3-Methyl-morpholin-4-yl)-9-pyridin-3-yl-8-trifluoromethyl-6,7,8,9-tetrahydro-pyrimido[1,2-a]-pyrimidin-4-one]
< 10	C[C@@H]1COCCN1c1cc(=O)n2c(n1)N(c1ccc(C3CC3)nc1)[C@H](C(F)(F)F)CC2 [Example 302, (S)-9-(6-Cyclopropyl-pyridin-3-yl)-2-((R)-3-methylmorpholin-4-yl)-8-trifluoromethyl-6,7,8,9-tetrahydro-pyrimido[1,2-a]-pyrimidin-4-one]
< 10	C[C@@H]1COCCN1c1cc(C(=O)CN2c3nc(N4CCOC[C@H]4C)cc(=O)n3CC[C@H]2C(F)(F)F)ccn1 [Example 303, (S)-2-((R)-3-Methyl-morpholin-4-yl)-9-{2-[2-((R)-3-methyl-morpholin-4-yl)pyridin-4-yl]-2-oxoethyl}-8-trifluoromethyl-6,7,8,9-tetrahydropyrimido[1,2-a]pyrimidin-4-one]
< 10	C[C@@H]1COCCN1c1cc(=O)n2c(n1)N(CC(=O)C1(C)CCOCC1)[C@H](C(F)(F)F)CC2 [Example 310, (S)-2-((R)-3-Methyl-morpholin-4-yl)-9-[2-(4-methyl-tetrahydro-pyran-4-yl)-2-oxo-ethyl]-8-trifluoromethyl-6,7,8,9-tetrahydro-pyrimido[1,2-a]-pyrimidin-4-one]
< 10	Cc1cc(C(=O)CN2c3nc(N4CCOC[C@H]4C)cc(=O)n3CC[C@H]2C(F)(F)F)no1 [Example 311, (S)-9-[2-(5-Methyl-isoxazol-3-yl)-2-oxo-ethyl]-2-((R)-3-methyl-morpholin-4-yl)-8-trifluoromethyl-6,7,8,9-tetrahydro-pyrimido[1,2-a]-pyrimidin-4-one]
< 10	C[C@@H]1COC[C@@H](C)N1c1cc(=O)n2c(n1)N(Cc1ccon1)[C@H](C(F)(F)F)CC2 [Example 313, (S)-2-((3R,5R)-3,5-Dimethylmorpholin-4-yl)-9-isoxazol-3-yl-methyl-8-trifluoromethyl-6,7,8,9-tetrahydropyrimido-[1,2-a]pyrimidin-4-one]
